Experimental data published in US20040176289A1, “Pharmaceutical composition for prevention and treatment of joint arthritis and a screening method thereof” (priority 2001, published 2004).
Entries after “also recorded” stand apart in the source; their conditions may differ.

Key:
[1] = tested on: chondrocytes; assay: NO (SNP) induced de-differentiation of chondrocytes (type-II collagen, proteoglycan); format: cell-based
Description: (§1) In order to investigate the effect of ERK activity on the de-differentiation of chondrocytes induced by NO production, the change of ERK activity in SNP treated chondrocytes was detected. […] In order to increase the ERK activity by SNP, at least 0. […] The ERK activity inhibitor also restrained the inhibition of type-II collagen expression by SNP (FIG. 8C), and it blocked the decrease of proteoglycan synthesis induced by SNP (FIG. 8D).

[2] = tested on: ERK; assay: ERK activity (Western blot, phosphorylated ERK-specific antibody) in micromass-cultured mesenchymal cells; format: cell-based, chicken; settings: mesenchymal cells treated with PD98059, micromass culture
Method: (§2) The present inventors have observed the differentiation process of chondrocytes using limb bud mesenchymal cells of Hamburger-Hamilton stage 24-25 chicken embryo under micromass culture (FIG. 1A). Particularly, mesenchymal cells were suspended in Ham's F-12 medium (Gibco BRL, Gaithersburg, Md., USA) supplemented with 10% fetal bovine serum (2×10^7 cells/ ml). The cell suspension was loaded onto culture dish (15 μl/spot) and cultured at 37° C. for two hours in order to fix the cells on the dish. The cells were further cultured in the Ham's F-12 medium containing 10% FBS, 50 μg/ml streptomycin, and 50 units/ml penicillin.
The present inventors have confirmed the effect of ERK activity inhibition on the differentiation of chondrocytes. Particularly, the present inventors have investigated how the differentiation was influenced by the change and the inhibition of ERK activity during the differentiation process of chondrocytes induced by micromass culture of mesenchimal cells (FIG. 2A and Example 1-1). […] Therefore, it was confirmed that the decrease of ERK activity was required for the differentiation from mesenchimal cells to chondrocytes; that is, the differentiation of chondrocytes was stimulated by the inhibition of ERK activity.
(§3) For the activation of ERK, phosphorylation by MEK, the upstream signal transduction molecule of ERK, is required.

[3] = tested on: ERK; assay: ERK activity in serially monolayer-cultured articular chondrocytes; format: cell-based, rabbit; settings: 20 μM, chondrocytes of each passage, two additional days
Description: In order to confirm the de-differentiation and degeneration of chondrocytes, the present inventors have performed consecutively monolayer culture with articular chondrocytes of a two- to four-week-old rabbit (FIG. 1B). Particularly, articular cartilage of the rabbit was thin-sectioned aseptically, and the articular fragments were then reacted in PBS containing 0.2% collagenase type-II (Sigma) for six hours. Through quick-centrifugation, single cells were obtained. The single cells were suspended in DMEM (Dulbecco 's modified Eagle's medium, Gibco BRL, Gaithersburg, Md., USA) containing 10% FBS, 50 μg/ml streptomycin, and 50 units/ml penicillin and were plated onto a culture-dish at a density of 5×10^4 cells/cm^2 and cultured at 37° C. The medium was changed every other day. Five days later, the culture dish was filled with grown-up cells, which were identified as P0. Those cells were subcultured at the concentration of 5×10^4 cells/cm^2 per culture dish. […]
In order to ascertain the effect of ERK activity on the de-differentiation of chondrocytes, rabbit articular cartilage cells were cultured at the density of 5×10^4 cells/cm^2 on a culture dish. […] The expression of type-II collagen was analyzed by Western and Northern blotting, resulting in the highest expression in, P0, beginning to decrease in P1 and almost no expression after P3 (FIG. 4A). […]

[4] = tested on: ERK; assay: ERK activity in SNP treated chondrocytes; format: cell-based
Description: as §1, §3

[5] = tested on: limb bud mesenchymal cells of chicken embryo; assay: Differentiation of mesenchymal cells to chondrocytes (alcian blue staining, type-II collagen Western blot); format: cell-based
Method: as §2
As a result, when mesenchymal cells were micromass cultured for five days, the synthesis of type-II collagen, a characteristic of chondrocytes, began to take place from the third day of culturing, which was confirmed by Western blotting using an antibody implying that the differentiation of chondrocytes was progressed. The accumulation of sulfated proteoglycan was also confirmed through alcian blue staining to be increased, which also implied that the differentiation of chondrocytes began from the third day of culturing and completed on the fifth day (FIG. 2A).
The present inventors have confirmed the effect of ERK activity inhibition on the differentiation of chondrocytes. […]

[6] = tested on: COX-2; assay: COX-2 expression in IL-1β treated chondrocytes (Western blotting); format: cell-based
Method: The present inventors have further investigated the relation between the inhibition of ERK activity and the expression of COX-2. Particularly, the inventors have confirmed with Western blotting the quantity of cox-2 protein expressed in chondrocytes after treating the cells with different concentrations of IL-1β for 24 hours.

[7] = tested on: chondrocytes; assay: IL-1β induced NO production in chondrocytes (nitrite); format: cell-based
Method: Particularly, the amount of NO was determined by measuring the concentration of nitrite, a reaction product of NO, secreted after treating chondrocytes with IL1-β for 24 hours.

[8] = tested on: SPF SD line rats; assay: Acute toxicity test in rat via non-oral administration; format: in vivo
Method: Six-week old SPF SD line rats were used in the tests for acute toxicity. 2-(2-amino-3-methoxyphenol)-4H-1-benzopyran-4-one (PD98059) of the present invention was suspended in 0.5% methyl cellulose solution and intravenous injected once into two rats per group at dosages of 50, 30, and 10 mg/kg/15 ml. Death, clinical symptoms, and weight change in the rats were observed, hematological tests and biochemical tests of blood were performed, and abnormal signs in the gastrointestinal organs of chest and abdomen were observed visually during autopsy.

[9] = tested on: P0 and P2 chondrocytes; assay: Immunostaining of type-II collagen in P0 and P2 chondrocytes; format: cell-based, rabbit; settings: 20 μM, two days, immunofluorescence
Method: In order to examine the suppression of de-differentiation by the inhibition of ERK activity, the expression of collagen was observed by immunostaining. Particularly, 20 μM of ERK activity inhibitor 2-(2-amino-3-methoxyphenol)-4H-1-benzopyran-4-one (PD98059) was added into P0 and P2 chondrocytes, and the cells were then cultured for two days. The cultured cells were fixed with 3% parpformaldehyde for ten minutes and some parts of the cell membranes were disrupted by 0.2% X-100. Next, anti-type II collagen antibody (10 μg/ml) was added thereto and continued to culture thereof for one hour.

[10] = tested on: MMP-9; assay: MMP-9 activity/expression by gelatin zymography in IL-1β treated articular cartilage cells; format: cell-based
Method: Particularly, articular cartilage cells were treated with 10 ng/ml of IL-1β according to the different times (0 minutes, ten minutes, thirty minutes, one hour, two hours, four hours, six hours, twelve hours, and 24 hours) and concentrations (0 ng/ml, 0.01 ng/ml , 0.1 ng/ml, 1 ng/ml, and 10 ng/ml), and culture supernatant was then obtained, followed by electrophoresis on the gel containing 2% gelatin. The separated gel was cultured at 37° C. for twelve hours, by which the decomposition of gelatin was induced by MMP-9. The remaining gelatin was stained for the confirmation of gelatin decomposition by MMP, based on which the MMP-9 activity was measured.

[11] = tested on: rabbit articular chondrocytes; assay: De-differentiation of articular chondrocytes in serial monolayer culture (type-II collagen, proteoglycan synthesis); format: cell-based; settings: two days; for expression of type-II collagen: 20 μM
Description: In order to confirm the de-differentiation and degeneration of chondrocytes, the present inventors have performed consecutively monolayer culture with articular chondrocytes of a two- to four-week-old rabbit (FIG. 1B). Particularly, articular cartilage of the rabbit was thin-sectioned aseptically, and the articular fragments were then reacted in PBS containing 0.2% collagenase type-II (Sigma) for six hours. Through quick-centrifugation, single cells were obtained. The single cells were suspended in DMEM (Dulbecco 's modified Eagle's medium, Gibco BRL, Gaithersburg, Md., USA) containing 10% FBS, 50 μg/ml streptomycin, and 50 units/ml penicillin and were plated onto a culture-dish at a density of 5×10^4 cells/cm^2 and cultured at 37° C. The medium was changed every other day. Five days later, the culture dish was filled with grown-up cells, which were identified as P0. Those cells were subcultured at the concentration of 5×10^4 cells/cm^2 per culture dish. The cells were continuously subcultured whenever they were fully grown to fill the dishes and were identified as P1 and next P2. Subculture was finished when P6 phase was completed. […] It was also confirmed by alcian blue staining that the accumulation of glycosaminoglycan sulfide was decreased as the subculture was continued. The de-differentiation and degeneration of chondrocytes were also disclosed by observing the shape of chondrocytes, which was changed from their distinguished round shape to fibroblast shape, a characteristic of degenerated chondrocytes (FIG. 2B).
In order to ascertain the effect of ERK activity on the de-differentiation of chondrocytes, rabbit articular cartilage cells were cultured at the density of 5×10^4 cells/cm^2 on a culture dish. The cells began to proliferate on the second day of culture and reached saturation on the fifth day. The cells in saturation point were designated as P0. The cells in P0 stage had typical round or polygonal shapes, but these forms changed into flat and fibroblast-like shapes while the cells were going through P6 stage by serial monolayer culture (FIG. 2B). The expression of type-II collagen was analyzed by Western and Northern blotting, resulting in the highest expression in, P0, beginning to decrease in P1 and almost no expression after P3 (FIG. 4A). […] Therefore, it was confirmed that the ERK activity was in inverse proportion to the expression of type-II collagen, which means the ERK activity plays an important role in the de-differentiation process.
To determine the relations between ERK activity and de-differentiation, the cells under subculturing were treated with 2-(2-amino-3-methoxyphenol)-4H-1-benzopyran-4-one (PD98059), an ERK activity inhibitor, and the synthesis of collagen and proteoglycan was observed. […]

[12] = tested on: chondrocytes; assay: NO production in chondrocytes treated with SNP; format: cell-based
Description: In order to investigate the effect of NO produced in chondrocytes on the de-differentiation of chondrocytes, the present inventors treated the cells with […] (SNP), a NO donor, to induce No production.

[13] = tested on: ERK; assay: ERK activity in IL-1β treated chondrocytes; format: cell-based; settings: chondrocytes treated with IL-1β
[14] = single intravenous injection, 50, 30 and 10 mg/kg/15 ml

Molecule: COc1cccc(-c2cc(=O)c3ccccc3o2)c1N [PD98059, 2-(2-amino-3-methoxyphenol)-4H-1-benzopyran-4-one]
- decrease of proteoglycan synthesis induced by SNP ([1]; PD98059 with SNP): blocked
- inhibition of type-II collagen expression by SNP ([1]; PD98059 with SNP): restrained
- activity of ERK [2]: decreased in a dose-dependent manner
- ERK activity [3]: suppressed
- ERK activity ([4]; 20 μM PD98059, SNP treated chondrocytes): totally restrained
- synthesis of proteoglycan (alcian blue staining) ([5]; mesenchymal cells treated with PD98059): remarkably increased; also recorded: largely increased
- expression of type-II collagen ([5]; mesenchymal cells treated with PD98059, Western blot): also increased
- expression of cox-2 ([6]; 5 μM PD98059, IL-1β for 24 hours): completely suppressed
- NO production caused by IL-1β ([7]; 5 μM PD98059, IL-1β for 24 hours, nitrite): completely inhibited
- level not causing any toxic change ([8]; single intravenous injection): ≤ 50 mg/kg
- clinical symptoms, weight change, death [8, 14]: did not cause any specific clinical symptoms, weight change, or death
- hematological tests, biochemical tests of blood, autopsy [8, 14]: No change was observed
- numbers of type-II collagen expressed cells ([9]; P0 cells): remarkably increased
- numbers of type-II collagen expressed cells ([9]; P2 cells): greatly increased
- expression of MMP-9 ([10]; 10 μM PD98059, IL-1β treated chondrocytes): suppressed
- increase of synthesis of proteoglycan by a factor (alcian blue staining) ([11]; P0, 20 μM): 2.6
- expression of type-II collagen ([11]; P0 cells): largely increased
- increase of synthesis of proteoglycan by a factor (alcian blue staining) ([11]; P2, 20 μM): 6.4
- expression of type-II collagen ([11]; P2 cells): turned to express again

Molecule: CC(=O)N[C@H](C(=O)O)C(C)(C)SN=O [SNP, S-nitroso-N-acetyl penicillamine]
- expression of type-II collagen ([1]; 0.1 mM SNP, 24 hours): started to decrease
- expression of type-II collagen ([1]; 1 mM SNP, 12 hours): began to decrease
- expression of type-II collagen ([1]; 1 mM SNP, 24 hours): totally suppressed
- synthesis of proteoglycan ([1]; SNP treated chondrocytes): decreased depending on the concentration
- ERK activity, time course ([4]; 1 mM SNP): began to increase three hours after the treatment and reached the highest activity twelve hours later
- SNP concentration required to increase the ERK activity ([4]; chondrocytes): at least 0. 5 mM
- NO production [12]: in proportion to the concentration

Molecule: IL-1β: an inflammatory cytokine
- ERK activity [13]: temporarily increased at the early stage
- expression of cox-2 ([6]; different concentrations of IL-1β, 24 hours): increased depending on the concentration
- NO production ([7]; chondrocytes treated with IL-1β): stimulates NO production in a dose-dependent manner
- expression of MMP-9 ([10]; IL-1β 0-10 ng/ml, gelatin zymography): largely increased depending on the concentration
